The values that follow are results of earlier work, collected in patent US20050101565A1, “Pharmaceutical compositions and methods for treating, preventing, and managing cholesterol, dyslipidemia, and related disorders” (Esperion Therapeutics, Inc., priority 2002, published 2005).

The conditions of series [1]: patients on metformin therapy.
For series [2] the following is noted: many patients, metformin therapy.

The structures appear in SMILES notation.

Regarding `CN(C)C(=N)N=C(N)N` [metformin], the “incidence of lactic acidosis” value in series [1] is 3 cases per 100,000 patient/year of therapy. Also, in series [2], the weight reduction was 5-10%.
